Consider 3 molecules from patent publication US12448705B2, “Bacteriophage compositions and methods of selection of components against specific bacteria” (priority 2016, dated 2025).

What all share (format): cell-based
The test system of experiment [1] is vancomycin-resistant E. faecalis (VRE). The experiment can be described thus: microbe, parasite or virus in culture.
Experimental: A culture of VRE was first grown in tryptic soy broth (Remel Cat #R455054) to an Optical Density (OD) of 0.5 at 600 nm. Tryptic soy with tetrazolium dye D (BioLog Cat #74224) was added to a 1% v/v ratio and then sterilized through a 0.22 μm filtration unit (Millipore Cat #SCGP00525). VRE stock phage was serially diluted in tryptic soy broth with dye in separate Eppendorf tubes to a final concentration of 10^7 pfu/ml. Vancomycin (Sigma, Cat #SBR00001-10 ml) was diluted separately in tryptic soy broth with tetrazolium dye to a concentration equal to 4 times the Minimal Inhibition Concentration (MIC) for the bacteria being used.
Briefly, microtiter plates for the phage-antibiotics synergy assay were prepared as follows. Tryptic soy broth with dye was added to the plate first. Next 50 μl of tryptic soy with tetrazolium dye was added to each well. […] The wells with Vancomycin were serially diluted 1:1 from row A down to row F. Phage were added to each well starting at 10^7 pfu/well in column 1 and then serially diluted 1:10 across from column 1 to 6. Individual phage was added at an MOI of 100. Finally all wells were inoculated with approximately 10^4 cfu of E. faecalis bacteria per well. […] The color change of all plates was recorded every 15 minutes over the course of the 48 hour incubation period.
Experiment [2] relates to meropenem^R K. pneumoniae 4640. The experiment can be described thus: Phage efficacy assay with meropenem and phage. The note with it: alone; meropenem 4 μg/ml; phage MOI 100; 48 hours at 37° C. The method, then:
The assay is based on the interaction between lytic phage and bacteria in a liquid environment. In this liquid assay system, tetrazolium dye is added with media. During active growth of bacteria, cellular respiration reduces the tetrazolium dye and produces a color change that is captured by a camera. In this system as many as 400 phage efficacy assays in the presence of a targeted bacterium can be performed simultaneously but separately, thus allowing monitoring of the kinetics of bacterial growth and the development of resistance over the course of the experiment. The interpretation of such phage-bacterial interaction data in liquid environment permits the selection of phages that are highly virulent against the given bacteria, evidenced by a hold-time of at least 4 hours. Further selection of these phages for cocktail preparation is evaluated using the same liquid assay in the presence of various mixtures of these virulent phages.
Using the phage efficacy assay described in Example 1, 10^4 cfu of meropenem^R K. pneumoniae was grown at 37° C. for 48 hours in the following conditions: (a) alone; (b) meropenem or phage (MOI 100); and (c) meropenem and varying MOIs of phage (MOI 0.01-100). The concentration of meropenem used for the indicated cultures was 4 μg/ml. […] The readout of this assay is bacterial growth hold-time.

Experiment [3] has as its system A. baumannii strain TP3. The experiment can be described thus: Checkerboard assay, phage cocktail and minocycline. The note with it: Acinetobacter baumannii, TP3, read-out: Minimal Inhibition Concentration (MIC).
Experiment [4] concerns A. baumannii isolate. The experiment can be described thus: Minocycline susceptibility of patient's isolate. The note with it: day 115, previously obtained isolate.
The test system of experiment [5] is A. baumannii strain TP3. The experiment can be described thus: Minocycline ETEST. The following applies: Acinetobacter baumannii, TP3, read-out: IC50 of A. baumannii strain TP3 to minocycline by ETEST. The method, then: For example, this assay was performed in order to better understand the interaction between the phage cocktail and minocycline administered in combination to the patient discussed in Example 5. Specifically, each well of a 96 well plate contained tryptic soy media with 1% tetrazolium dye (v/v) for bacterial growth media. […] The wells with antibiotics were then serially diluted 1:1 from row A down to row F. Phage were then added to each well starting at 10^7 pfu per well in column 1 and then serially diluted 1:10 across from column 1 to 6. All wells were then inoculated with approximately 10^4 cfu of bacteria per well. This design allows for antibiotic dilutions going down the columns and dilutions of phage going across the rows. Columns 7 and 8 represent antibiotic control wells and rows G and H represent phage control wells. However, wells G7, G8, H7, and H8 represent bacteria only control wells. […] The IC50 of A. baumannii strain TP3 to minocycline by ETEST (bioMerieux USA, Durham, NC) was 4 μg/mL.

Converted amounts (≈) assume the structure as drawn.

With `CN[C@H](CC(C)C)C(=O)N[C@H]1C(=O)N[C@@H](CC(N)=O)C(=O)N[C@H]2C(=O)N[C@H]3C(=O)N[C@H](C(=O)N[C@H](C(=O)O)c4cc(O)cc(O)c4-c4cc3ccc4O)[C@H](O)c3ccc(c(Cl)c3)Oc3cc2cc(c3O[C@@H]2O[C@H](CO)[C@@H](O)[C@H](O)[C@H]2O[C@H]2C[C@](C)(N)[C@H](O)[C@H](C)O2)Oc2ccc(cc2Cl)[C@H]1O` [Vancomycin], in experiment [1] (10^4 cfu per well, phage MOI of 100, vancomycin 16 μg/ml, 48 hours at 37° C., FIG. 25), the “delay of bacterial growth” value is given as “up to 18 hours”. Also, the MIC in experiment [1] (Enterococcus faecalis, VRE, read-out: minimal inhibitory concentration for E. faecalis) was 16 µg/mL (≈ 11 µM).

On to `C[C@@H](O)[C@H]1C(=O)N2C(C(=O)O)=C(S[C@@H]3CN[C@H](C(=O)N(C)C)C3)[C@H](C)[C@H]12` [meropenem], for which, in experiment [2], the hold-time entry is “approximately 6 hours”.

For orientation: IC50 means the concentration needed to halve the response being measured. As to `CN(C)c1ccc(O)c2c1C[C@H]1C[C@H]3[C@H](N(C)C)C(O)=C(C(N)=O)C(=O)[C@@]3(O)C(O)=C1C2=O` [minocycline], the MIC in experiment [3] was 32 µg/mL. The “concentration at which isolate found susceptible” value in experiment [4] worked out at 3 µg/mL. For the same molecule, the IC50 in experiment [5] came to 4 µg/mL.
